In patent publication US9359451B2, “Methods and compositions for treating trauma-hemorrhage using estrogen and derivatives thereof” (THE UAB RESEARCH FOUNDATION, priority 2012, dated 2016):
“Also recorded” adds a separate entry of the source.

Tests used:
Male SD rats = assay: Survival and blood pressure after trauma-hemorrhage with 60% blood loss and no fluid resuscitation; type: in vivo, rat
Procedure: 16 rats were subjected to 60% removal of blood volume, using the same protocol found in Example 5.
Furthermore, crystalloid fluid resuscitation was administered following an initial 3-hour interval after the trauma and major blood loss, and rats were followed for 7 days. It has been observed that rats which survive for the initial 3 hours uniformly go on to survive for prolonged period of time and were then sacrificed. The survival rate is 68% for estrogen-treated rats, while all untreated control rats have died within the initial 3-hour interval (see FIG. 21).
(§1) Although E2 administration after trauma-hemorrhage (T-H) and fluid resuscitation produces salutary effects on organ functions, it was not known if E2 has any beneficial effects after major blood loss in the absence of fluid resuscitation. Male SD rats ˜250 g) underwent T-H (tissue trauma, BP 40 mmHg in 10 min and maintained at that BP by further blood withdrawal until maximum bleed out (MBO, 60% of total blood volume) occurred (45:t5 min)). E2 i.v. (1 mg/Kg, 0.4 ml/Kg volume, i.e., 120 μL/300 g body weight) or vehicle (cyclodextrin, CD) was then infused. No additional fluid was given for 3 hours. If rats survived, they received Ringer's lactate, 4× the MBO volume. A custom-fabricated 31p coil was placed on the surface of the rat's liver after laparotomy in another group, and spectra acquired using 4.7T NMR spectroscopy via a 31p coil in real time before and during hemorrhagic shock. Shock increased phosphomonoester and Pi with a concomitant decrease in β-ATP in both groups.

liver ATP and pH = assay: 31P NMR spectroscopy of liver ATP and intracellular pH during hemorrhagic shock; type: in vivo, rat; conditions: FIG. 23; vs cyclodextrin control; listed as E2
Procedure: Imaging and nuclear magnetic resonance studies were conducted to evaluate the effects of E2 on preservation of adenosine triphosphate (ATP) and pH levels in the liver.
The traumatic injury can involve a reduction in cellular ATP levels as compared to control ATP levels. By “control” is meant levels as measured before the traumatic injury, or levels that are considered in the “normal” range for the subject. Imaging and nuclear magnetic resonance studies have also been conducted to evaluate the effects of E2 on preservation of adenosine triphosphate (ATP) and pH levels in the liver.
as §1, with “A custom-fabricated 31p coil was placed on the surface of the rat's liver after laparotomy in another group, and spectra acquired using 4.7T NMR spectroscopy via a 31p coil in real time before and during hemorrhagic shock. Shock increased phosphomonoester and Pi with a concomitant decrease in β-ATP in both groups.” left out

degenerate neurons = assay: Traumatic brain injury: Fluro-Jade staining of degenerate neurons; type: in vivo, rat; conditions: brain cortex or CA 2/3 hippocampus, 24 hours after 1 mg/kg iv given 1 hour after LFP TBI
Source text: As such, the lesser the FJ staining, the greater the neuroprotection. Sections stained with FJ are quantified as FJ positive cells, and are taken from brain cortex or CA 2/3 region of the hippocampus. The groups shown in the graph above are sham+vehicle, sham+E2, TBI+vehicle and TBI+E2.

cardiac performance = assay: SPECT-CT of cardiac performance after severe hemorrhage; type: in vivo, rat; conditions: FIG. 46
Procedure: This was measured by SPECT-CT (single photon emission computed tomography-computed tomography) which enables the measurement of the volume of blood forced from the heart visualized through 3-D, real-time imaging (FIG. 46).

[1] = system: ovariectomized female CBA/J mice; assay: Trauma-hemorrhage in ovariectomized female mice: plasma E2 and uterine wet weight; type: in vivo, mouse; conditions: 24 h after E2 sc; sham operated or hemorrhaged, vs vehicle
Procedure: To test this, ovariectomized female CBA/J mice were subjected to laparotomy (i.e., soft tissue trauma) and hemorrhagic shock (35±5 mmHg for 90 min, then resuscitated) or sham operation. […] Immune cells were isolated 24 h thereafter.
Experimental groups. Ovariectomy was performed in female CBA/J mice 2 wk before trauma-hemorrhage using two dorsolateral incisions. […] Two weeks after ovariectomy, the animals were divided into four groups. Groups 1 and 2 consisted of sham-operated ovariectomized females, which were neither hemorrhaged nor resuscitated. Animals in groups 3 and 4 consisted of ovariectomized females, which were subjected to the trauma-hemorrhage procedure. […] Each group consisted of 7-8 animals.
Trauma-hemorrhage procedure. […] Blood pressure was constantly monitored by attaching one of the catheters to a blood pressure analyzer (Micro-Med, Louisville, Ky.). […]
Determination of plasma E2 concentration. E2 concentration was determined using a commercially available radio-immunoassay (ICN Biomedicals, Costa Mesa, Calif.) as described by the manufacturer.

isolated vascular rings = assay: Vascular reactivity of isolated vascular rings in a physiological bath; set-up: species or system rat or pig; conditions: antagonist added to EE-3-SO4
Procedure: Data to delineate the mechanism of action for EE-3-SO4 vis-à-vis effects on the cardiovascular system was acquired. While it is well known that estrogens act on the vascular system by a variety of mechanisms including vasorelaxation per se, specific confirmation of this fact for EE-3-SO4 was needed. […] Vessels are contracted by a variety of agents (i.e., endothelin-1, phenylephrine). The action(s) are measured with a force transducer and recorded digitally. […] (see FIG. 42).

| Structure (SMILES) | 3-hour survival rates without fluid resuscitation (Male SD rats; E2 i.v. 1 mg/Kg, 0.4 ml/Kg at MBO (60% of total blood volume), vehicle cyclodextrin) | long-term survival after resuscitation (Male SD rats; Ringer's lactate 4x MBO volume after 3 hours) | intracellular pH in liver (liver ATP and pH) | Fluro-Jade positive cells (neurodegeneration) (degenerate neurons) | cardiac performance as ejection fraction (SPECT-CT) (cardiac performance) | uterine wet weight [1] | antagonism of EE-3-SO4's vessel relaxation (isolated vascular rings) |
| --- | --- | --- | --- | --- | --- | --- | --- |
| C[C@]12CC[C@@H]3c4ccc(O)cc4CC[C@H]3[C@@H]1CC[C@@H]2O [17β-estradiol] | markedly improves 3-hour survival rates | increases long-term survival after resuscitation | maintenance of pH near neutral; also recorded: pH remains near neutral | greater that twofold fewer cells undergoing neurodegeneration | substantially enhance cardiac performance as ejection fraction | significantly increased | – |
| C[C@]12CC[C@@H]3c4ccc(O)cc4C[C@@H](CCCCCCCCC[S+]([O-])CCCC(F)(F)C(F)(F)F)[C@H]3[C@@H]1CC[C@@H]2O (stereo partly shown) [ICI 182,780] | – | – | – | – | – | – | completely blocked |
